Measured values: ChEMBL document CHEMBL4138160, “Biphenylthiazole antibiotics with an oxadiazole linker: An approach to improve physicochemical properties and oral bioavailability” (Eur J Med Chem, 2018)
≈ marks a conversion by molar mass, not a printed value. Calls of active or inactive are those of the source. The calls are words filed in the database; no cut-off is given here.

Experiments:
[1] = system: Staphylococcus aureus; test: Antibacterial activity against Staphylococcus aureus VRS12 clinical isolate after 20 hrs by broth microdilution method; format: functional; settings: VRS12, 20 h
[2] = system: Rattus norvegicus; test: Tmax in Sprague-Dawley rat at 25 mg/kg administered via oral gavage measured over 24 hrs by LC-MS/MS analysis; format: ADME, organism-based; settings: in vivo
[3] = system: Rattus norvegicus; test: Oral bioavailability in Sprague-Dawley rat at 25 mg/kg administered via gavage measured over 24 hrs by LC-MS/MS analysis; format: ADME, organism-based; settings: in vivo
[4] = system: BHK-21; test: Cytotoxicity against BHK21 cells assessed as decrease in cell viability after 24 hrs by MTT assay; format: cell-based; settings: Mesocricetus auratus, BHK-21, 24 h
[5] = system: HRT-18 cell line; test: Cytotoxicity against human HRT18 cells assessed as decrease in cell viability at 512 ug/ml after 2 hrs by MTS assay; format: cell-based; settings: hrt-18, 2 h
[6] = system: Staphylococcus aureus; test: Bactericidal activity against methicillin-resistant Staphylococcus aureus USA300 at 4 times MIC after 24 hrs by time kill assay; format: functional, organism-based
[7] = system: Rattus norvegicus; test: Cmax in Sprague-Dawley rat at 25 mg/kg administered via oral gavage measured over 24 hrs by LC-MS/MS analysis; format: ADME, organism-based; set-up: dose 25 mg/kg, route oral; settings: in vivo
[8] = system: Staphylococcus aureus; test: Potency index, ratio of vancomycin MIC to test compound MIC for Staphylococcus aureus VRS12 clinical isolate; format: functional
[9] = system: Enterococcus faecium; test: Antibacterial activity against vancomycin-resistant Enterococcus faecium ATCC 700221 after 20 hrs by broth microdilution method; format: functional; settings: ATCC 700221, 20 h
[10] = system: Klebsiella pneumoniae; test: Antibacterial activity against Klebsiella pneumoniae BAA-1706 after 20 hrs by broth microdilution method; format: functional; settings: BAA-1706, 20 h
[11] = Aqueous solubility in PBS after 2 hrs; format: physicochemical; settings: buffer
[12] = AUClast in Sprague-Dawley rat at 25 mg/kg administered via oral gavage measured over 24 hrs by LC-MS/MS analysis; format: ADME, organism-based; set-up: dose 25 mg/kg, route oral, time 0 - last; settings: in vivo
[13] = system: BHK-21; test: Cytotoxicity against BHK21 cells assessed as decrease in cell viability after 6 hrs by MTT assay; format: cell-based; settings: Mesocricetus auratus, BHK-21, 6 h
[14] = system: Staphylococcus aureus; test: Antibacterial activity against Staphylococcus aureus USA400 NRS123 clinical isolate after 20 hrs by broth microdilution method; format: functional; settings: USA400 NRS123, 20 h
[15] = system: Staphylococcus aureus; test: Antibacterial activity against Staphylococcus aureus VRS11a clinical isolate after 20 hrs by broth microdilution method; format: functional
[16] = system: Staphylococcus aureus; test: Bactericidal activity against methicillin-resistant Staphylococcus aureus USA300 at 4 times MIC after 12 hrs by time kill assay; format: functional
[17] = system: Staphylococcus aureus; test: Antibacterial activity against Staphylococcus aureus RN4220 NRS107 clinical isolate after 20 hrs by broth microdilution method; format: functional; settings: RN4220 NRS107, 20 h
[18] = system: Acinetobacter baumannii; test: Antibacterial activity against Acinetobacter baumannii ATCC 19606 after 20 hrs by broth microdilution method; format: functional; settings: ATCC 19606 = CIP 70.34 = JCM 6841, 20 h
[19] = Ratio of Cmax in Sprague-Dawley rat at 25 mg/kg administered via oral gavage to MIC for methicillin-resistant Staphylococcus aureus 2658 RCMB; format: ADME, organism-based; settings: in vivo
[20] = system: Pseudomonas aeruginosa; test: Antibacterial activity against Pseudomonas aeruginosa ATCC 15442 after 20 hrs by broth microdilution method; format: functional; settings: ATCC 15442, 20 h
[21] = system: Staphylococcus aureus; test: Antibacterial activity against methicillin-resistant Staphylococcus aureus 2658 RCMB after 20 hrs by broth microdilution method; format: functional
[22] = system: Enterococcus faecalis; test: Antibacterial activity against vancomycin-resistant Enterococcus faecalis ATCC 51299 after 20 hrs by broth microdilution method; format: functional; settings: ATCC 51299, 20 h
[23] = Ratio of non cytotoxic concentration against human HRT18 cells to MIC for methicillin-resistant Staphylococcus aureus 2658 RCMB; format: toxicity, cell-based
[24] = system: Staphylococcus aureus; test: Antibacterial activity against methicillin-resistant Staphylococcus aureus USA300 NRS384 at sub MIC after 14 passages over 2 weeks by broth microdilution method; format: functional, organism-based
[25] = Half life in Sprague-Dawley rat at 25 mg/kg administered via oral gavage measured over 24 hrs by LC-MS/MS analysis; format: ADME, organism-based; settings: in vivo
[26] = system: Staphylococcus aureus; test: Antibacterial activity against Staphylococcus aureus VRS10 clinical isolate after 20 hrs by broth microdilution method; format: functional; settings: VRS10, 20 h
[27] = system: Enterobacter cloacae; test: Antibacterial activity against Enterobacter cloacae BAA-1154 after 20 hrs by broth microdilution method; format: functional; settings: BAA-1154, 20 h
[28] = system: Staphylococcus aureus; test: Potency index, ratio of vancomycin MIC to test compound MIC for Staphylococcus aureus VRS11a clinical isolate; format: functional
[29] = system: Staphylococcus aureus; test: Antibacterial activity against Staphylococcus aureus RN4220 NRS107 clinical isolate after 18 to 20 hrs by broth microdilution method; format: functional
[30] = system: HRT-18 cell line; test: Cytotoxicity against human HRT18 cells assessed as decrease in cell viability up to 256 ug/ml after 2 hrs by MTS assay; format: cell-based; settings: hrt-18, 2 h
[31] = system: Staphylococcus aureus; test: Antibacterial activity against methicillin-resistant Staphylococcus aureus USA300 NRS384 at sub MIC after 4 passages by broth microdilution method
[32] = system: Staphylococcus aureus; test: Antibacterial activity against methicillin-resistant Staphylococcus aureus USA300 NRS384 by broth microdilution method
[33] = system: Staphylococcus aureus; test: Antibacterial activity against Staphylococcus aureus NRS119 clinical isolate after 20 hrs by broth microdilution method; format: functional; settings: NRS119, 20 h
[34] = system: Staphylococcus aureus; test: Antibacterial activity against Staphylococcus aureus NRS119 clinical isolate after 18 to 20 hrs by broth microdilution method; format: functional

## Cc1nc(-c2ccc(-c3ccccc3)cc2)sc1-c1nnc(NC(=N)N2CCN(C)CC2)o1
[1]
  MIC: 16 µg/mL (≈ 34.8 µM)
[2]
  Tmax: 1.7 h
[3]
  F: 42.5%
[4]
  IC50: 45.7 µg/mL (≈ 99.4 µM)
[5]
  Activity: Non-Toxic
[6]
  Activity: Active
[7]
  Cmax: 6222.1 ng/mL
[8]
  Ratio: 30
[9]
  MIC: > 64 µg/mL
[10]
  MIC: > 64 µg/mL
[11]
  solubility: 104 µM (≈ 47.8 µg/mL)
[12]
  AUC(0-t) at 24 h: 83200 ng·h/mL
[13]
  IC50: 398 µg/mL (≈ 866 µM)
[14]
  MIC: 16 µg/mL (≈ 34.8 µM)
[15]
  MIC: 16 µg/mL (≈ 34.8 µM)
[16]
  Activity: 3 deltalog10CFU/ml
[17]
  MIC: 8 µg/mL (≈ 17.4 µM)
[18]
  MIC: > 64 µg/mL
[19]
  Ratio: 6
[20]
  MIC: > 64 µg/mL
[21]
  MIC: 1.17 µg/mL (≈ 2.55 µM)
[22]
  MIC: > 64 µg/mL
[23]
  selectivity ratio: > 400
[24]
  Activity: Active
[25]
  half-life: 2.04 h
[26]
  MIC: 16 µg/mL (≈ 34.8 µM)
[27]
  MIC: > 64 µg/mL
[28]
  Ratio: 30

## Cc1nc(-c2ccc(-c3ccccc3)cc2)sc1-c1nnc(N2CCC2)o1
[21]
  MIC: > 25 µg/mL

## Cc1nc(-c2ccc(-c3ccccc3)cc2)sc1-c1nnc(N2CCOCC2)o1
[21]
  MIC: 12.5 µg/mL (≈ 30.9 µM)

## CCCNc1nnc(-c2sc(-c3ccc(-c4ccccc4)cc3)nc2C)o1
[21]
  MIC: > 25 µg/mL

## CNc1nnc(-c2sc(-c3ccc(-c4ccccc4)cc3)nc2C)o1
[21]
  MIC: 12.5 µg/mL (≈ 35.9 µM)

## CCCCNc1nnc(-c2sc(-c3ccc(-c4ccccc4)cc3)nc2C)o1
[21]
  MIC: > 25 µg/mL

## Cc1nc(-c2ccc(-c3ccccc3)cc2)sc1-c1nnc(NC(=N)c2ccncc2)o1
[21]
  MIC: > 25 µg/mL

## CCN(CC)c1nnc(-c2sc(-c3ccc(-c4ccccc4)cc3)nc2C)o1
[21]
  MIC: > 25 µg/mL

## CCNc1nnc(-c2sc(-c3ccc(-c4ccccc4)cc3)nc2C)o1
[21]
  MIC: > 25 µg/mL

## Cc1nc(-c2ccc(-c3ccccc3)cc2)sc1-c1nnc(NN)o1
[11]
  solubility: 77 µM (≈ 26.9 µg/mL)
[21]
  MIC: 3.12 µg/mL (≈ 8.93 µM)

## CNC(=N)Nc1nnc(-c2sc(-c3ccc(-c4ccccc4)cc3)nc2C)o1
[11]
  solubility: 89 µM (≈ 34.8 µg/mL)
[21]
  MIC: 1.56 µg/mL (≈ 4 µM)

## C/C(=C\C(=O)OCCCCCCCCC(=O)O)C[C@@H]1OC[C@H](C[C@@H]2O[C@H]2[C@@H](C)[C@H](C)O)[C@@H](O)[C@H]1O [MUPIROCIN]
[29]
  MIC: 1020 µg/mL (≈ 2050 µM)

## Cc1nc(-c2ccc(-c3ccccc3)cc2)sc1-c1nnc(NC(C)C)o1
[21]
  MIC: > 25 µg/mL

## Cc1nc(-c2ccc(-c3ccccc3)cc2)sc1-c1nnc(NC(=N)c2cccnc2)o1
[21]
  MIC: > 25 µg/mL

## Cc1nc(-c2ccc(-c3ccccc3)cc2)sc1-c1nnc(N2CC(O)C2)o1
[11]
  solubility: 150 µM (≈ 58.6 µg/mL)
[21]
  MIC: 3.12 µg/mL (≈ 7.99 µM)

## Cc1nc(-c2ccc(-c3ccccc3)cc2)sc1-c1nnc(NC(=N)N2CCOCC2)o1
[21]
  MIC: 1.56 µg/mL (≈ 3.49 µM)
[30]
  Activity: Non-Toxic
[24]
  Activity: Active

## Cc1nc(-c2ccc(-c3ccccc3)cc2)sc1-c1nnc(NC(=N)c2ccccn2)o1
[21]
  MIC: > 25 µg/mL

## Cc1nc(-c2ccc(-c3ccccc3)cc2)sc1-c1nnc(NC2CCCCC2)o1
[21]
  MIC: > 25 µg/mL

## Cc1nc(-c2ccc(-c3ccccc3)cc2)sc1-c1nnc(NC(=N)N)o1
[4]
  IC50: 45 µg/mL (≈ 119 µM)
[11]
  solubility: 128 µM (≈ 48.2 µg/mL)
[13]
  IC50: > 1000 µg/mL
[21]
  MIC: 1.56 µg/mL (≈ 4.14 µM)

## CCCCc1ccc(-c2nc(C)c(/C(C)=N/NC(=N)N)s2)cc1
[3]
  F: 0%

## CO[C@H]1/C=C/O[C@@]2(C)Oc3c(C)c(O)c4c(O)c(c(/C=N/N5CCN(C)CC5)c(O)c4c3C2=O)NC(=O)/C(C)=C\C=C\[C@H](C)[C@H](O)[C@@H](C)[C@@H](O)[C@@H](C)[C@H](OC(C)=O)[C@@H]1C [RIFAMPIN]
[31]
  MIC: 1.6 µg/mL (≈ 1.94 µM)
[32]
  MIC: 0.006 µg/mL (≈ 0.00729 µM)

## Cc1nc(-c2ccc(-c3ccccc3)cc2)sc1-c1nnc(N2CCCC2)o1
[21]
  MIC: > 25 µg/mL

## Cc1nc(-c2ccc(-c3ccccc3)cc2)sc1-c1nnc(NC(=N)N2CCCC2)o1
[21]
  MIC: 12.5 µg/mL (≈ 29 µM)

## Cc1nc(-c2ccc(-c3ccccc3)cc2)sc1-c1nnc(NC2CCCC2)o1
[21]
  MIC: > 25 µg/mL

## Cc1nc(-c2ccc(-c3ccccc3)cc2)sc1-c1ccnc(NC(=N)N)n1
[11]
  solubility: 2.2 µM (≈ 0.85 µg/mL)

## C/C(=N\NC(=N)N)c1sc(-c2ccc(-c3ccccc3)cc2)nc1C
[11]
  solubility: 2.7 µM (≈ 0.944 µg/mL)
[21]
  MIC: 2.75 µg/mL (≈ 7.87 µM)

## Cc1nc(-c2ccc(-c3ccccc3)cc2)sc1-c1nnc(N2CCN(C)CC2)o1
[11]
  solubility: 45 µM (≈ 18.8 µg/mL)
[21]
  MIC: 1.56 µg/mL (≈ 3.74 µM)

## CN[C@H](CC(C)C)C(=O)N[C@H]1C(=O)N[C@@H](CC(N)=O)C(=O)N[C@H]2C(=O)N[C@H]3C(=O)N[C@H](C(=O)N[C@H](C(=O)O)c4cc(O)cc(O)c4-c4cc3ccc4O)[C@H](O)c3ccc(c(Cl)c3)Oc3cc2cc(c3O[C@@H]2O[C@H](CO)[C@@H](O)[C@H](O)[C@H]2O[C@H]2C[C@](C)(N)[C@H](O)[C@H](C)O2)Oc2ccc(cc2Cl)[C@H]1O [VANCOMYCIN]
[1]
  MIC: > 512 µg/mL
[9]
  MIC: > 64 µg/mL
[15]
  MIC: > 512 µg/mL
[21]
  MIC: 1.56 µg/mL (≈ 1.08 µM)

## Cc1nc(-c2ccc(-c3ccccc3)cc2)sc1-c1nnc(N(C)C)o1
[21]
  MIC: > 25 µg/mL

## Cc1nc(-c2ccc(-c3ccccc3)cc2)sc1-c1nnc(NC(=N)N2CCCCC2)o1
[21]
  MIC: > 25 µg/mL

## CC(=O)NC[C@H]1CN(c2ccc(N3CCOCC3)c(F)c2)C(=O)O1 [LINEZOLID]
[9]
  MIC: 1 µg/mL (≈ 2.96 µM)
[33]
  MIC: > 128 µg/mL
[10]
  MIC: > 64 µg/mL
[18]
  MIC: > 64 µg/mL
[20]
  MIC: > 64 µg/mL
[34]
  MIC: > 128 µg/mL
[27]
  MIC: > 64 µg/mL
